In PubChem BioAssay AID1996:
≈ marks a conversion by molar mass, not a printed value.

details: buffer; pH 7.4; 200.0 µM

solubility kinetic [mg/mL] | SMILES
0.0033 (≈ 12 µM) | S=C(Nc1ccc(Cl)c(Cl)c1)N1CCCC1
> 0.0378 | CNC(=O)N1c2ccccc2CCc2ccccc21
> 0.0386 | Cc1cc(C2(O)C(=O)Nc3ccccc32)ccc1F (stereo unspecified)
0.0385 (≈ 112 µM) | CCOc1ccc(S(=O)(=O)NCc2cccnc2)c2ccccc12
> 0.0515 | COc1cccc(N2C(=O)CC(Sc3nc(C)cc(C)n3)C2=O)c1 (stereo unspecified)
0.0015 (≈ 4.38 µM) | COC(=O)c1ccc2c(=O)n(-c3ccc(OC)cc3)c(=S)[nH]c2c1
> 0.0481 | CCCCn1c(N)c(N(CC)C(=O)c2ccco2)c(=O)[nH]c1=O
0.0006 (≈ 1.96 µM) | CC(C)(C)c1ccc(/C=C(\C#N)C(=O)Nc2ccccn2)cc1
0.001 (≈ 3.42 µM) | Cc1ccc(Oc2c(C)nc(-c3ccccc3)[nH]c2=O)cc1
0.0006 (≈ 1.83 µM) | COc1ccc(Nc2nc(-c3ccncc3)nc3ccccc23)cc1
> 0.0426 | Cn1ccsc1=NC(=O)c1cccc(OC(F)F)c1
> 0.0494 | O=C(CNC(=O)c1ccc(Br)o1)NC1CCCCC1
0.0105 (≈ 41.3 µM) | CC(=O)c1cccc(NC(=O)Nc2ccccc2)c1
> 0.0658 | O=C(O)c1cccc(Nc2nc3ccccc3nc2NS(=O)(=O)c2ccc(F)cc2)c1
0.0298 (≈ 93 µM) | CCOC(=O)Cc1csc(-n2sc3ccccc3c2=O)n1
0.0069 (≈ 21.1 µM) | CC(=O)c1cccc(NC(=O)NC(C)c2ccc3c(c2)OCO3)c1 (stereo unspecified)
> 0.0509 | CC(=O)N1CCN(CC(C)(C)NS(=O)(=O)c2ccccc2)CC1
> 0.0527 | Cc1cc(Br)ccc1NC(=O)CNC(=O)c1cnn(C)c1
0.0478 (≈ 135 µM) | Cc1sc2ncnc(NS(=O)(=O)c3ccc(Cl)cc3)c2c1C
0.007 (≈ 26.6 µM) | O=S(=O)(Cc1ccccc1)N(O)c1ccccc1
> 0.0398 | Cc1ccc(SCC(=O)NCC2CCCO2)cc1 (stereo unspecified)
0.0493 (≈ 141 µM) | CC(NC(=O)C(c1ccccc1)c1ccccc1)C(=O)N1CCCCC1 (stereo unspecified)

solubility kinetic [mg/mL] | SMILES
0.0382 (≈ 144 µM) | COc1ccccc1OCCOCCN1CCCC1
> 0.0398 | CCOC(CNc1ncnc2c1cnn2C)OCC
0.0191 (≈ 54 µM) | N/C(CS(=O)(=O)c1ccccn1)=N\OC(=O)c1ccc(Cl)cc1
0.0439 (≈ 124 µM) | CCCCCCC(=O)N(O)C1CC(=O)N(c2ccc(Cl)cc2)C1=O (stereo unspecified)
> 0.0349 | O=C(Nc1ccncc1)c1ccccc1Cl
> 0.0467 | Nc1cc(=O)n(Cc2ccccc2)c(=O)n1-c1ccc(F)cc1
0.0152 (≈ 39.4 µM) | Cn1c(N)c(C(=O)COC(=O)c2ccc(C(F)(F)F)cc2)c(=O)n(C)c1=O
> 0.0468 | CN1CCCC(OC(=O)c2ccc(C(C)(C)C)cc2)C1.Cl (stereo unspecified)
0.0301 (≈ 133 µM) | CCCCNC(=S)Nc1ccc(F)cc1
> 0.0661 | COc1ccc(NC(=O)CN2CCN(C(C)=O)CC2)cc1S(=O)(=O)N1CCOCC1
> 0.0446 | O=C(O)CCC(=O)N(Cc1ccccc1)Cc1ccccc1
> 0.0499 | CCS(=O)(=O)N1CCN(C(=O)c2cccc3ccccc23)CC1
0.007 (≈ 24 µM) | C=CCn1c(SCC#N)nc2sc(CC)cc2c1=O
> 0.0419 | CC(=O)Nc1ccc(CCc2nc3ccccc3[nH]2)cc1
0.0241 (≈ 127 µM) | Cc1ccc2c(ccc(=S)n2C)c1
0.0162 (≈ 64.7 µM) | CC(NC(=O)NC(=O)c1ccc(F)cc1)C1CC1 (stereo unspecified)
> 0.0427 | CC1CN(C(=S)Nc2cccc(Cl)c2)CC(C)O1 (stereo unspecified)
> 0.0363 | Cc1cccc(NC(=O)c2cc[n+]([O-])cc2)c1C
0.0249 (≈ 87.6 µM) | N#Cc1ccccc1OCC(=O)OCC(=O)c1ccc[nH]1
0.0122 (≈ 51 µM) | O=C(Nc1cccc2ccccc12)C1CCCC1
> 0.017 | Cl.NCCS
> 0.0443 | COc1cccc(NC(=O)c2ccccc2C(F)(F)F)c1

solubility kinetic [mg/mL] | SMILES
> 0.047 | CCOc1ncccc1C(=O)NCC(c1ccccc1)N(C)C (stereo unspecified)
> 0.05 | Cc1ccc(NC(=O)CCC(=O)N2CCC(C)CC2)c([N+](=O)[O-])c1
0.0216 (≈ 83 µM) | O=S(=O)(c1ccc(=S)[nH]c1)N1CCOCC1
0.0351 (≈ 144 µM) | CN(C(=O)/C=C/c1ccccc1)C1CCCCC1
> 0.0339 | C=CCn1cnc2c(oc3ccccc32)c1=O
0.0011 (≈ 3.39 µM) | O=C(COc1ccccc1F)NCc1ccc(-n2cccc2)cc1
> 0.0396 | Cc1cccc(NC(=O)CN2C(=O)CSC2=O)c1
0.0457 (≈ 148 µM) | CC(OC(=O)C1=COCCO1)C(=O)NC1(C#N)CCCCC1 (stereo unspecified)
0.0458 (≈ 145 µM) | CCC1(CC)NC(=O)N(CC(=O)N2CCc3ccccc32)C1=O
> 0.0434 | O=C(CSc1ncccn1)Nc1ccc2c(c1)OCO2
< 0.0003 | FC(F)(F)c1ccc(-c2csc(-c3ccno3)n2)cc1
> 0.0647 | O=C(CN(Cc1ccco1)C(=O)c1ccc(F)cc1)Nc1ccccc1Br
0.0012 (≈ 3.57 µM) | O=C(NC(=S)Nc1ccccc1[N+](=O)[O-])c1ccccc1Cl
0.0061 (≈ 20.4 µM) | Cc1ccc(NC(=O)COc2ccc3c(c2)OCO3)c(C)c1
0.0049 (≈ 15.7 µM) | CCN(c1ccccc1)S(=O)(=O)c1ccc2ccccc2c1
0.0405 (≈ 143 µM) | CC(=O)NC1CCN(CC(=O)Nc2nccs2)CC1
0.0005 (≈ 1.42 µM) | Cc1c([N+](=O)[O-])cc(C(=O)Nc2ccc3ncccc3c2)cc1[N+](=O)[O-]
0.0493 (≈ 142 µM) | O=C(NC1CCCN(CCc2ccccc2)C1)c1c[nH]c2ccccc12 (stereo unspecified)
0.0171 (≈ 56.7 µM) | Fc1cccc(C2CCCCN2Cc2nc(C3CC3)no2)c1 (stereo unspecified)
0.0037 (≈ 10.3 µM) | Cc1ccc(C)c(OCCC(=O)OCC(=O)NCc2ccc(F)cc2)c1
> 0.0592 | CCOc1ccccc1Nc1nnc(SCC(=O)NCC2CCCO2)s1 (stereo unspecified)
0.0314 (≈ 128 µM) | O/N=C/c1ccnc(SCc2ccccc2)n1

solubility kinetic [mg/mL] | SMILES
> 0.0429 | C=CCNC(=O)/C(=C\c1ccco1)NC(=O)c1ccco1
0.0507 | FC(F)Oc1ccc(-c2c[n+]3c(n2-c2ccccc2)CCCCC3)cc1
0.0096 (≈ 19.4 µM) | COc1cc(OC)c(C(=O)OCC(=O)Nc2ccc(S(=O)(=O)N3CCOCC3)cc2)cc1OC
> 0.0479 | COc1ccccc1N(CC1CO1)S(=O)(=O)c1ccccc1 (stereo unspecified)
> 0.0608 | CC(=O)Nc1ccc(S(=O)(=O)N(C)CC(=O)NCCOc2ccccc2)cc1
> 0.0494 | COc1cc2c(cc1NC(=O)COCC(=O)O)oc1ccccc12
0.0171 (≈ 44.9 µM) | COc1cc2c(cc1OC)C(C)N(C(=O)c1cc(Cl)nc(Cl)c1)CC2 (stereo unspecified)
0.0265 (≈ 82.7 µM) | COc1ccc(NC(=O)C(Cc2ccccc2)n2cccc2)cc1 (stereo unspecified)
> 0.0578 | C[C@@H](C(=O)Nc1ccccc1N1CCOCC1)N1C(=O)C2CCCCC2C1=O (stereo partly specified)
> 0.0395 | COc1ccc(NC(=O)Nc2ccon2)cc1OC
0.0102 (≈ 37 µM) | CCCCOc1ccc(CC2CCC(=O)NC2=O)cc1 (stereo unspecified)
> 0.0533 | O=C(CNC(=O)c1ccc(Br)o1)NCc1ccc(F)cc1
> 0.0446 | O=C1Nc2ccc([N+](=O)[O-])cc2C1=Nc1cccc(CO)c1
0.0425 (≈ 143 µM) | Cc1ccc(C(=O)NCCCN2CCOCC2)cc1Cl
> 0.0452 | O=C(CNC(=O)[C@@H]1Cc2ccccc2CN1)NC1CCCC1
0.0383 (≈ 133 µM) | CCOC(=O)Cn1c2ccc(C)cc2c2nc(C)sc21
> 0.0524 | O.O=C([O-])c1ccn2c(C(=O)c3ccccc3)c(-c3ccccc3)cc2c1
0.001 (≈ 2.62 µM) | O=C(CSc1ccc(Cl)cc1)Nc1ccc(C2SCCS2)cc1
> 0.0748 | CCCCN(C(=O)CSc1nc(CCC)cc(=O)[nH]1)c1c(N)n(Cc2ccccc2)c(=O)[nH]c1=O
0.0037 (≈ 12 µM) | O=S(=O)(c1ccc(Cl)cc1)N1CCCc2ccccc21
